Experimental data as given in ChEMBL document CHEMBL1136630, “Cancer chemotherapy: a SN-38 (7-ethyl-10-hydroxycamptothecin) glucuronide prodrug for treatment by a PMT (Prodrug MonoTherapy) strategy” (Bioorg Med Chem Lett, 2003).

Experiments:
HT-29 [1] = assay: In vitro inhibitory concentration required against HT-29 human colon cancer cells; format: functional, cell-based
HT-29 [2] = assay: In vitro inhibitory concentration required against HT-29 human colon cancer cells in the presence of beta-D-glucuronidase; format: functional, cell-based
[3] = Half-life time was determined; format: ADME

| SMILES | IC50 (HT-29 [1]) [nM] | IC50 (HT-29 [2]) [nM] | half-life [3] [min] |
| --- | --- | --- | --- |
| CCc1c2c(nc3ccc(O)cc13)-c1cc3c(c(=O)n1C2)COC(=O)[C@]3(O)CC [7-ETHYL-10-HYDROXYCAMPTOTHECIN] | 27.3 | – | – |
| CCc1c2c(nc3ccc(OC(=O)N(C)c4cc([N+](=O)[O-])ccc4OC4CC(C(=O)O)C(O)C(O)C4O)cc13)C1CC3=C(COC(=O)[C@]3(O)CC)C(=O)N1C2 (some centres undefined) | 1980 | 26 | 12.7 |
